# Test results: the CheMixHub viscosity set
# Values joined by “and” are separate entries in the source; they are usually repeats but may differ in a detail not shown here. Identical values can stand only once. ± gives the uncertainty stated by the source.
# Assay: xn = mol fraction of the nth substance listed
structure (smiles),measurement,setting,value
CC(C)C(=O)O + O,viscosity,"293.15 K, 101.33 kPa, x1 = 0.011",1.181 ± 0.012 mPa·s
same,viscosity,"293.15 K, 101.33 kPa, x1 = 0.0222",1.448 ± 0.014 mPa·s
same,viscosity,"293.15 K, 101.33 kPa, x1 = 0.0348",1.558 ± 0.016 mPa·s
same,viscosity,"293.15 K, 101.33 kPa, x1 = 0.0486",1.779 ± 0.018 mPa·s
same,viscosity,"299.35 K, 101.33 kPa, x1 = 0.11",2.904 ± 0.021 mPa·s
same,viscosity,"299.36 K, 101.33 kPa, x1 = 0.11",2.896 ± 0.021 mPa·s
same,viscosity,"299.37 K, 101.33 kPa, x1 = 0.11",2.882 ± 0.021 mPa·s
same,viscosity,"299.38 K, 101.33 kPa, x1 = 0.11",2.868 ± 0.021 mPa·s
same,viscosity,"299.39 K, 101.33 kPa, x1 = 0.11",2.846 ± 0.021 mPa·s and 2.836 ± 0.021 mPa·s
same,viscosity,"299.4 K, 101.33 kPa, x1 = 0.11",2.813 ± 0.021 mPa·s
same,viscosity,"299.43 K, 101.33 kPa, x1 = 0.11",2.767 ± 0.02 mPa·s
same,viscosity,"299.45 K, 101.33 kPa, x1 = 0.11",2.751 ± 0.02 mPa·s
same,viscosity,"299.48 K, 101.33 kPa, x1 = 0.11",2.711 ± 0.02 mPa·s
same,viscosity,"299.5 K, 101.33 kPa, x1 = 0.11",2.69 ± 0.02 mPa·s
same,viscosity,"299.56 K, 101.33 kPa, x1 = 0.11",2.645 ± 0.02 mPa·s
same,viscosity,"299.64 K, 101.33 kPa, x1 = 0.11",2.606 ± 0.019 mPa·s
same,viscosity,"299.72 K, 101.33 kPa, x1 = 0.11",2.571 ± 0.019 mPa·s
same,viscosity,"299.85 K, 101.33 kPa, x1 = 0.11",2.541 ± 0.019 mPa·s
same,viscosity,"299.96 K, 101.33 kPa, x1 = 0.11",2.506 ± 0.019 mPa·s
same,viscosity,"300.15 K, 101.33 kPa, x1 = 0.11",2.466 ± 0.018 mPa·s
same,viscosity,"300.4 K, 101.33 kPa, x1 = 0.11",2.422 ± 0.018 mPa·s
same,viscosity,"301.15 K, 101.33 kPa, x1 = 0.11",2.317 ± 0.017 mPa·s
same,viscosity,"302.15 K, 101 kPa, x1 = 0.0106",0.9416 ± 0.0059 mPa·s
same,viscosity,"302.15 K, 101 kPa, x1 = 0.0222",1.066 ± 0.0065 mPa·s
same,viscosity,"302.15 K, 101 kPa, x1 = 0.0348",1.21 ± 0.0073 mPa·s
same,viscosity,"302.15 K, 101 kPa, x1 = 0.0486",1.388 ± 0.0083 mPa·s
same,viscosity,"302.15 K, 101 kPa, x1 = 0.0545",1.469 ± 0.0087 mPa·s
same,viscosity,"302.15 K, 101 kPa, x1 = 0.0638",1.6 ± 0.0094 mPa·s
same,viscosity,"302.15 K, 101 kPa, x1 = 0.0737",1.74 ± 0.01 mPa·s
same,viscosity,"302.15 K, 101 kPa, x1 = 0.0806",1.837 ± 0.011 mPa·s
same,viscosity,"302.15 K, 101 kPa, x1 = 0.0915",1.999 ± 0.012 mPa·s
same,viscosity,"302.15 K, 101 kPa, x1 = 0.1114",2.213 ± 0.013 mPa·s
same,viscosity,"302.15 K, 101 kPa, x1 = 0.12",2.285 ± 0.013 mPa·s
same,viscosity,"302.15 K, 101 kPa, x1 = 0.129",2.348 ± 0.013 mPa·s
same,viscosity,"302.15 K, 101 kPa, x1 = 0.1433",2.423 ± 0.014 mPa·s
same,viscosity,"302.15 K, 101 kPa, x1 = 0.1698",2.499 ± 0.014 mPa·s
same,viscosity,"302.15 K, 101 kPa, x1 = 0.1999",2.568 ± 0.015 mPa·s
same,viscosity,"302.15 K, 101 kPa, x1 = 0.2347",2.614 ± 0.015 mPa·s
same,viscosity,"302.15 K, 101 kPa, x1 = 0.323",2.632 ± 0.015 mPa·s
same,viscosity,"302.15 K, 101 kPa, x1 = 0.4499",2.493 ± 0.014 mPa·s
same,viscosity,"302.15 K, 101 kPa, x1 = 0.4996",2.403 ± 0.014 mPa·s
same,viscosity,"302.15 K, 101 kPa, x1 = 0.7953",1.685 ± 0.0098 mPa·s
same,viscosity,"302.15 K, 101 kPa, x1 = 0.9529",1.27 ± 0.0076 mPa·s
same,viscosity,"302.27 K, 101.33 kPa, x1 = 0.11",2.211 ± 0.017 mPa·s
same,viscosity,"303.11 K, 101.33 kPa, x1 = 0.11",2.144 ± 0.016 mPa·s
same,viscosity,"303.15 K, 101.33 kPa, x2 = 0.352",1.51 ± 0.04 mPa·s
same,viscosity,"303.15 K, 101.33 kPa, x2 = 0.55",2.12 ± 0.056 mPa·s
same,viscosity,"303.15 K, 101.33 kPa, x2 = 0.677",2.43 ± 0.064 mPa·s
same,viscosity,"303.15 K, 101.33 kPa, x2 = 0.765",2.51 ± 0.066 mPa·s
same,viscosity,"303.15 K, 101.33 kPa, x2 = 0.83",2.42 ± 0.064 mPa·s
same,viscosity,"303.15 K, 101.33 kPa, x2 = 0.88",2 ± 0.053 mPa·s
same,viscosity,"303.15 K, 101.33 kPa, x2 = 0.919",1.58 ± 0.042 mPa·s
same,viscosity,"303.15 K, 101.33 kPa, x2 = 0.951",1.28 ± 0.034 mPa·s
same,viscosity,"303.15 K, 101.33 kPa, x2 = 0.978",1.02 ± 0.027 mPa·s
same,viscosity,"304.12 K, 101.33 kPa, x1 = 0.11",2.07 ± 0.016 mPa·s
same,viscosity,"305.07 K, 101.33 kPa, x1 = 0.11",2.003 ± 0.015 mPa·s
same,viscosity,"305.15 K, 101 kPa, x1 = 0.0106",0.8833 ± 0.0056 mPa·s
same,viscosity,"305.15 K, 101 kPa, x1 = 0.0222",0.9974 ± 0.0062 mPa·s
same,viscosity,"305.15 K, 101 kPa, x1 = 0.0348",1.127 ± 0.0069 mPa·s
same,viscosity,"305.15 K, 101 kPa, x1 = 0.0486",1.284 ± 0.0077 mPa·s
same,viscosity,"305.15 K, 101 kPa, x1 = 0.0545",1.355 ± 0.0081 mPa·s
same,viscosity,"305.15 K, 101 kPa, x1 = 0.0638",1.469 ± 0.0087 mPa·s
same,viscosity,"305.15 K, 101 kPa, x1 = 0.0737",1.59 ± 0.0094 mPa·s
same,viscosity,"305.15 K, 101 kPa, x1 = 0.0806",1.673 ± 0.0098 mPa·s
same,viscosity,"305.15 K, 101 kPa, x1 = 0.0915",1.799 ± 0.01 mPa·s
same,viscosity,"305.15 K, 101 kPa, x1 = 0.1114",1.993 ± 0.011 mPa·s
same,viscosity,"305.15 K, 101 kPa, x1 = 0.12",2.06 ± 0.012 mPa·s
same,viscosity,"305.15 K, 101 kPa, x1 = 0.129",2.117 ± 0.012 mPa·s
same,viscosity,"305.15 K, 101 kPa, x1 = 0.1433",2.18 ± 0.013 mPa·s
same,viscosity,"305.15 K, 101 kPa, x1 = 0.1698",2.271 ± 0.013 mPa·s
same,viscosity,"305.15 K, 101 kPa, x1 = 0.1999",2.339 ± 0.013 mPa·s
same,viscosity,"305.15 K, 101 kPa, x1 = 0.2347",2.388 ± 0.014 mPa·s
same,viscosity,"305.15 K, 101 kPa, x1 = 0.323",2.423 ± 0.014 mPa·s
same,viscosity,"305.15 K, 101 kPa, x1 = 0.4499",2.32 ± 0.013 mPa·s
same,viscosity,"305.15 K, 101 kPa, x1 = 0.4996",2.244 ± 0.013 mPa·s
same,viscosity,"305.15 K, 101 kPa, x1 = 0.6404",1.959 ± 0.011 mPa·s
same,viscosity,"305.15 K, 101 kPa, x1 = 0.7953",1.597 ± 0.0094 mPa·s
same,viscosity,"305.15 K, 101 kPa, x1 = 0.9529",1.214 ± 0.0073 mPa·s
same,viscosity,"306.72 K, 101.33 kPa, x1 = 0.11",1.907 ± 0.014 mPa·s
same,viscosity,"307.67 K, 101.33 kPa, x1 = 0.11",1.855 ± 0.014 mPa·s
same,viscosity,"308.15 K, 101 kPa, x1 = 0.0106",0.8203 ± 0.0052 mPa·s
same,viscosity,"308.15 K, 101 kPa, x1 = 0.0222",0.9263 ± 0.0058 mPa·s
same,viscosity,"308.15 K, 101 kPa, x1 = 0.0348",1.049 ± 0.0065 mPa·s
same,viscosity,"308.15 K, 101 kPa, x1 = 0.0486",1.194 ± 0.0072 mPa·s
same,viscosity,"308.15 K, 101 kPa, x1 = 0.0545",1.259 ± 0.0076 mPa·s
same,viscosity,"308.15 K, 101 kPa, x1 = 0.0638",1.361 ± 0.0082 mPa·s
same,viscosity,"308.15 K, 101 kPa, x1 = 0.0737",1.468 ± 0.0087 mPa·s
same,viscosity,"308.15 K, 101 kPa, x1 = 0.0806",1.541 ± 0.0091 mPa·s
same,viscosity,"308.15 K, 101 kPa, x1 = 0.0915",1.651 ± 0.0097 mPa·s
same,viscosity,"308.15 K, 101 kPa, x1 = 0.1114",1.827 ± 0.011 mPa·s
same,viscosity,"308.15 K, 101 kPa, x1 = 0.12",1.878 ± 0.011 mPa·s
same,viscosity,"308.15 K, 101 kPa, x1 = 0.129",1.927 ± 0.011 mPa·s
same,viscosity,"308.15 K, 101 kPa, x1 = 0.1433",1.99 ± 0.011 mPa·s
same,viscosity,"308.15 K, 101 kPa, x1 = 0.1698",2.077 ± 0.012 mPa·s
same,viscosity,"308.15 K, 101 kPa, x1 = 0.1999",2.144 ± 0.012 mPa·s
same,viscosity,"308.15 K, 101 kPa, x1 = 0.2347",2.195 ± 0.013 mPa·s
same,viscosity,"308.15 K, 101 kPa, x1 = 0.323",2.24 ± 0.013 mPa·s
same,viscosity,"308.15 K, 101 kPa, x1 = 0.4499",2.156 ± 0.012 mPa·s
same,viscosity,"308.15 K, 101 kPa, x1 = 0.4996",2.089 ± 0.012 mPa·s
same,viscosity,"308.15 K, 101 kPa, x1 = 0.6404",1.837 ± 0.011 mPa·s
same,viscosity,"308.15 K, 101 kPa, x1 = 0.7953",1.504 ± 0.0089 mPa·s
same,viscosity,"308.15 K, 101 kPa, x1 = 0.9529",1.155 ± 0.007 mPa·s
same,viscosity,"311.15 K, 101 kPa, x1 = 0.0106",0.765 ± 0.0049 mPa·s
same,viscosity,"311.15 K, 101 kPa, x1 = 0.0222",0.8626 ± 0.0054 mPa·s
same,viscosity,"313.15 K, 101.33 kPa, x1 = 0.011",0.767 ± 0.0077 mPa·s
same,viscosity,"313.15 K, 101.33 kPa, x1 = 0.0222",0.907 ± 0.0091 mPa·s
same,viscosity,"313.15 K, 101.33 kPa, x1 = 0.0348",0.965 ± 0.0097 mPa·s
same,viscosity,"313.15 K, 101.33 kPa, x1 = 0.0486",1.094 ± 0.011 mPa·s
